Reference: paper PMC8708600, “Depth of the Steroid Core Location Determines the Mode of Na,K-ATPase Inhibition by Cardiotonic Steroids” (International Journal of Molecular Sciences, 2021)
“And” between values parts separate entries of the source, which are not always exact repeats. Equal values may be shown once. “Also recorded” adds a separate entry of the source. Read-outs that look alike come from different tables or passages of the source.

Legend:
[1] = biological target: T1, α1S-Na,K-ATPase in E2P-conformation (Sus scrofa, UniProt P05024); test: biochemical; format: binding, pig
T1 construct: In contrast to α1S-NKA from pig kidneys; from tissue; host or cells: pig kidney
Description: (§1) The thermodynamic parameters of CTSs’ binding to the pig and rat NKA were measured using the MicroCal iTC200 instrument (MicroCal, Northampton, MA, USA), as described earlier. α1S-NKA (pig) was transferred into E2P-conformation in the following way: enzyme preparations (5 mg) were suspended in 3 mL of buffer 10 mM imidazole, 3 mM Tris/Pi (pH 7.4), 1 mM EDTA, 0.1 mM DTT and 3 mM MgCl2 (E2P-conformation). DTT was added to the buffer immediately before the experiment. Suspensions of enzymes were centrifuged at 138,000 g for 90 min, and the pellets obtained were suspended in the buffer. α1R-NKA from rat kidneys was transferred into the buffer by dialysis.
(§2) Experiments were carried out at 37 °C. CTSs were diluted by a buffer that was used for enzyme suspension. Aliquots (2.5 μL) of ligands were injected into a 0.2 mL cell containing the protein solution to achieve a complete binding isotherm. The protein concentration on the cell ranged from 10 to 20 μM, and the ligand concentration in the syringe ranged from 50 to 200 μM. When we used digoxin or marinobufagenin, stock solutions were prepared using 100% DMSO, and then stock solutions were diluted to needed concentrations by the corresponding buffer; after that, aliquots were added to the cell. The medium with a protein of interest contained DMSO in the same concentration.
(§3) The resulting titration curves were fitted using the MicroCal Origin software, assuming one set of binding sites. Affinity constants (Ka) and enthalpy variations (ΔH) were determined, and the Gibbs energy (ΔG) and entropy variations (ΔS) were calculated from the equation:ΔG = −RTlnKa = ΔH – TΔS.

NKA in E2P-conformation = biological target: NKA in E2P-conformation; set-up: method as in PMID 33318128; settings: read-out: Kd for binding to E2P-conformation; cited from earlier work
[2] = biological target: T2, α1R-Na,K-ATPase in E2P-conformation (Rattus norvegicus, UniProt P06685); test: biochemical; format: binding
T2 construct: α1R-NKA from rat kidneys was transferred into the buffer by dialysis; from tissue; host or cells: rat kidney
Description: as §1, §2, §3

[3] = biological target: T3, α1S-Na,K-ATPase from pig kidneys (Sus scrofa, UniProt P05024); test: Hydrolytic Na,K-ATPase activity (enzyme coupled assay), CTS in incubation medium; format: biochemical
T3 construct: In contrast to α1S-NKA from pig kidneys; from tissue; host or cells: pig kidney
Description: (§4) NKA activity was estimated as ATP cleavage using the enzyme coupled assay method. Incubation medium (2 mL) contained 130 mM NaCl, 20 mM KCl, 4 mM MgCl2, 3 mM ATP, […] (pH 7.4), 1 mM phosphoenolpyruvate, 0.2 mM NADH, 0.18 MM; NADH and pyruvate kinase (600–1000 units/mL)/lactate dehydrogenase (900–1400 units/mL). […] Incubation was carried out at 37 °C, and the concentration of Na,K-ATPase in the sample was 0.4–0.6 μg/mL. […] To determine IC50, 2 μg NKA was preincubated with CTSs in the incubation medium for 10 min, and after that, the reaction was started by the addition of ATP.
(§5) The plots describing the dependence of the NKA hydrolytic activity on CTSs concentration in the incubation medium were made using the Origin 8.1 program (OriginLab Corp., Northampton, MA, USA). They were fitted by hyperbola. The dependence of the Na,K-ATPase hydrolytic activity on the CTSs’ concentration in the preincubation media was fitted to the Hill 1 function: y=y0+ymax−y0x^n/k^n+x^n, where y—Na,K-ATPase activity; x—concentration of CTS; k—inhibition constant; n—Hill coefficient. Fitting was performed using Origin 8.1 software.

[4] = biological target: T4, α1R-Na,K-ATPase from rat kidneys (Rattus norvegicus, UniProt P06685); test: as above; format: biochemical; settings: for inhibition of α1R-NKA activity (in words): concentration up to 500 μM
T4 construct: α1R-NKA from rat kidneys was transferred into the buffer by dialysis; from tissue; host or cells: rat kidney
Description: as §4, §5

[5] = biological target: T5, α1R-Na,K-ATPase from rat kidney in E2P-conformation (Rattus norvegicus, UniProt P06685); format: biochemical
T5 construct: α1R-NKA from rat kidneys was transferred into the buffer by dialysis; from tissue; host or cells: rat kidney
Description: (§6) To identify a mode of enzyme inhibition by CTSs after their binding to different enzyme conformations, we preincubated NKA in the medium containing 30 MM imidazole (pH 7.4), 3 mM MgCl2, 3 mM Pi/Tris and 1 mM EDTA (E2P-conformation). Solutions of CTSs were made using 100% DMSO with a final concentration of ouabain 100 mM and digoxin and marinobufagenin at 10 mM. Then an aliquot of the corresponding stock solution was added to the preincubation medium to obtain a final CTSs concentration.
(§7) After enzyme preincubation with different concentrations of CTSs for several minutes, the reaction was started by transferring the aliquot of the solution containing 0.25–2.5 μg of NKA from the preincubation medium into the incubation one. The concentration of CTSs was decreased by this procedure by 50–100 times. […] That time interval was equal to 10 min for E2P-conformation of pig and rat kidney enzymes. The control sample was preincubated under the same conditions with a concentration of DMSO that was added to the experimental medium with the corresponding CTS.
as §5

[6] = biological target: T6, α1S-Na,K-ATPase from pig kidneys in E2P-conformation (Sus scrofa, UniProt P05024); format: biochemical
T6 construct: In contrast to α1S-NKA from pig kidneys; from tissue; host or cells: pig kidney
Description: as §6, §7, §5

NKA from pig kidneys = settings: read-out: IC50 measured for the enzyme from pig kidneys; cited from earlier work
[7] = test system: NKA from duck salt glands (α1β1-isoform), E2P-conformation; set-up: method as in PMID 26297827; settings: cited from earlier work; for Kd: read-out: Kd, binding to E2P-conformation of NKA
renal epithelial cells = test system: renal epithelial cells; set-up: method as in PMID 15494417; settings: ion transport by NKA inhibited by 50% at these concentrations; cited from earlier work
[8] = ITC, E2P-conformation, pH 7.4, 37 °C
[9] = ITC, E2P-conformation, pH 7.4, 37 °C, calculated as Kd = 1/Ka, read-out: Kd (dissociation constant)
[10] = ITC, pH 7.4, 37 °C, ΔG = −RTlnKa
[11] = ITC, E2P-conformation, pH 7.4, 37 °C, nd = not detected
[12] = CTS in incubation medium, 37 °C, hyperbola fit, read-out: IC50, inhibition of α1S-NKA hydrolytic activity
[13] = as restated in discussion, read-out: IC50 evaluated in our experiments
[14] = after preincubation with enzyme in E2P-conformation and dilution

C[C@H]1O[C@@H](O[C@H]2[C@@H](O)C[C@H](O[C@H]3[C@@H](O)C[C@H](O[C@H]4CC[C@@]5(C)[C@H](CC[C@@H]6[C@@H]5C[C@@H](O)[C@]5(C)[C@@H](C7=CC(=O)OC7)CC[C@]65O)C4)O[C@@H]3C)O[C@@H]2C)C[C@H](O)[C@@H]1O [digoxin]
entropy component (−TΔS) [1]: -2.0 kcal/mol
TΔS (entropy variation) ([1]; pH 7.4): 2.0 kcal/mol
n (reaction stoichiometry) ([1]; pH 7.4): 0.5 ± 0.1
ΔG (Gibbs energy) ([1]; pH 7.4): -9.9 kcal/mol
ΔH (enthalpy variation) ([1]; pH 7.4): -7.9 ± 0.6 kcal/mol and -7.9 kcal/mol
Kd (NKA in E2P-conformation): 126 nM
binding of α1R-NKA to CTS (in words) [2]: no measurable binding
IC50 ([3]; IC50, inhibition of α1S-NKA hydrolytic activity): 1200 nM
IC50 ([3]; IC50 evaluated in our experiments): 2000 nM
IC50 [4]: 250000 nM
mode of interaction with α1R-NKA (in words) [5]: reversible
Hill coefficient [6]: 1.90 ± 0.21 and 1.70 ± 0.33 and 1.99 ± 0.27
mode of α1S-NKA inhibition (in words) [6]: pseudo-irreversible inhibitors
IC50 (NKA from pig kidneys): 1950 nM

C[C@@H]1O[C@@H](O[C@H]2C[C@@H](O)[C@]3(CO)[C@H]4[C@H](O)C[C@]5(C)[C@@H](C6=CC(=O)OC6)CC[C@]5(O)[C@@H]4CC[C@]3(O)C2)[C@H](O)[C@H](O)[C@H]1O [ouabain]
Ka (association constant) [1, 8]: 1.9e+07 M⁻¹
TΔS (entropy variation) [1, 8]: -11.3 kcal/mol
n (reaction stoichiometry) [1, 8]: 0.7 ± 0.2
ΔH (enthalpy variation) [1, 8]: -21.6 ± 0.7 kcal/mol and -21.6 kcal/mol
Kd [1, 9]: 53 nM
ΔG (Gibbs energy) [1, 10]: -10.3 kcal/mol
Kd (NKA in E2P-conformation): 88 nM
entropy component (−TΔS) ([2]; ITC, 37 °C): -3.4 kcal/mol
TΔS (entropy variation) [2, 8]: 3.4 kcal/mol
Kd [2, 9]: 3230 nM
Ka (association constant) [2, 11]: 3.1 × 10^5 * M^−1
n (reaction stoichiometry) [2, 11]: 0.6 ± 0.1
ΔH (enthalpy variation) [2, 11]: -4.3 ± 0.7 kcal/mol and -4.3 kcal/mol
ΔG (Gibbs energy) [2, 10]: -7.7 kcal/mol
ouabain affinity for α1R-NKA lower than for α1S-NKA ([2]; ITC, α1R versus α1S): 60 times
higher affinity of ouabain binding in comparison to marinobufagenin ([7]; E2P-conformation): 17 fold
Kd [7]: 100 nM
IC50 [3, 12]: 2000 nM
IC50 [3, 13]: 800 nM
IC50 ([4]; CTS in incubation medium, 37 °C, hyperbola fit, read-out: IC50, inhibition of rat enzyme (α1R-NKA) hydrolytic activity): 140000 nM
mode of interaction with α1R-NKA (in words) ([5]; after preincubation with enzyme and dilution): reversibly; also recorded: reversible
Hill coefficient ([6]; CTS in preincubation medium, 40 nM of the enzyme): 1.89 ± 0.14
Hill coefficient ([6]; CTS in preincubation medium, 80 nM of the enzyme): 1.96 ± 0.19
Hill coefficient ([6]; CTS in preincubation medium, 400 nM of the enzyme): 1.91 ± 0.09
mode of α1S-NKA inhibition (in words) [6, 14]: pseudo-irreversible inhibitors
concentration inducing renal epithelial cells death (renal epithelial cells): ~0.1 µM
IC50 (NKA from pig kidneys): 900 nM

C[C@]12CC[C@H](O)C[C@H]1CC[C@@H]1[C@@H]2CC[C@]2(C)[C@@H](c3ccc(=O)oc3)CC[C@]12O [bufalin]
Kd (NKA in E2P-conformation): 125 nM
IC50 (NKA from pig kidneys): 110 nM

C[C@]12CC[C@H](O)C[C@@]1(O)CC[C@@H]1[C@@H]2CC[C@]2(C)[C@@H](c3ccc(=O)oc3)C[C@H]3O[C@]132 [marinobufagenin]
entropy component (−TΔS) ([1]; ITC, 37 °C): -2.8 kcal/mol
affinity of α1S-NKA for marinobufagenin lower than that for digoxin ([1]; ITC, E2P-conformation, 37 °C): ~11 times
affinity of α1S-NKA for marinobufagenin lower than that for ouabain ([1]; ITC, E2P-conformation, 37 °C): about 44 times
Ka (association constant) [1, 8]: 4.3 × 10^5 * M^−1
TΔS (entropy variation) [1, 8]: 2.8 kcal/mol
n (reaction stoichiometry) [1, 8]: 1.7 ± 0.2
ΔH (enthalpy variation) [1, 8]: -5.2 ± 0.3 kcal/mol
Kd [1, 9]: 2320 nM
ΔH (enthalpy variation) ([1]; ITC, E2P-conformation, pH 7.4, 37 °C, listed as MBG): -5.2 kcal/mol
Kd ([1]; ITC, Table 1 value as quoted in discussion, read-out: Kd for binding to E2P-conformation): 2300 nM
ΔG (Gibbs energy) [1, 10]: -7.9 kcal/mol
binding of α1R-NKA to CTS (in words) ([2]; ITC, association constants below 2 × 10^4 M^−1 cannot be measured): no measurable binding
Kd [7]: 1700 nM
IC50 [3, 12]: 800 nM
IC50 [3, 13]: 1200 nM
inhibition of α1R-NKA activity (in words) [4]: does not inhibit this isoform at all
inhibition of α1R-NKA activity (in words) ([4]; listed as Marinobufagenin): does not inhibit
mode of α1S-NKA inhibition (in words) [6, 14]: reversible inhibitor; also recorded: reversibly
concentration inducing renal epithelial cells death (renal epithelial cells): about 1 μM
IC50 (NKA from pig kidneys): 1500 nM
